# Laboratory results: patent publication US20250186437A1, “CARBOLINE COMPOUNDS AND USE THEREOF” (PTC Therapeutics, Inc., priority 2021, published 2025)
# System: MOLM-13 cells
# Assay: MOLM-13 Cell Proliferation Assay (indicator of DHODH inhibition)
# Assay type: cell-based
# Conditions: Homo sapiens, 72 Hours of culture, CellTiter-Glo, no uridine
# Outline: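 Low-passage MOLM-13 cells (10^4/well) in RPMI 1640 + 10% FBS exposed to compound (0.5% DMSO final) for 72 h at 37 °C, 5% CO2. Viability read by CellTiter-Glo luminescence; growth reflects de novo pyrimidine synthesis dependent on DHODH.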
row,IC50 [nM],Compound
1,58.1,"Cc1ccc([C@@H]2c3[nH]c4ccc(Cl)cc4c3CCN2c2nccc(C#N)n2)c(F)c1F [Compound 176, 2-[(1R)-6-chloro-1-(2,3-difluoro-4-methylphenyl)-1,3,4,9-tetrahydro-2H-pyrido[3,4-b]indol-2-yl]pyrimidine-4-carbonitrile]"
2,99.2,"Cc1ccc(C2c3[nH]c4ccc(Cl)cc4c3CCN2c2nccc(N(C)C)n2)cc1 (centres unmarked) [Compound 307, 2-[6-chloro-1-(4-methylphenyl)-1,3,4,9-tetrahydro-2H-pyrido[3,4-b]indol-2-yl]-N,N-dimethylpyrimidin-4-amine]"
3,5.4,"Fc1cc(N2CCOCC2)ccc1C1c2[nH]c3ccc(Cl)cc3c2CCN1c1nccc(C(F)(F)F)n1 (centres unmarked) [Compound 277, 6-chloro-1-[2-fluoro-4-(morpholin-4-yl)phenyl]-2-[4-(trifluoromethyl)pyrimidin-2-yl]-2,3,4,9-tetrahydro-1H-pyrido[3,4-b]indole]"
4,1,"Cc1ccc(C2c3[nH]c4ccc(Cl)c(F)c4c3CCN2c2nc(C)c(F)c(C)n2)c(F)c1F (centres unmarked) [Compound 118, 6-chloro-1-(2,3-difluoro-4-methylphenyl)-5-fluoro-2-(5-fluoro-4,6-dimethylpyrimidin-2-yl)-2,3,4,9-tetrahydro-1H-pyrido[3,4-b]indole]"
5,38,"N#Cc1ncnc(N2CCc3c([nH]c4ccc(Cl)cc34)[C@@H]2c2cnc(N3CCOCC3)nc2)n1 [Compound 414, 4-{(1S)-6-chloro-1-[2-(morpholin-4-yl)pyrimidin-5-yl]-1,3,4,9-tetrahydro-2H-pyrido[3,4-b]indol-2-yl}-1,3,5-triazine-2-carbonitrile]"
6,20.5,"Cc1nc(C)nc(N2CCc3c([nH]c4ccc(-n5nccn5)cc34)C2c2cnc(N3CCOCC3)nc2)n1 (centres unmarked) [Compound 300, 2-(4,6-dimethyl-1,3,5-triazin-2-yl)-1-[2-(morpholin-4-yl)pyrimidin-5-yl]-6-(2H-1,2,3-triazol-2-yl)-2,3,4,9-tetrahydro-1H-pyrido[3,4-b]indole]"
7,0.8,"FC(F)(F)c1cc(C(F)(F)F)nc(N2CCc3c([nH]c4ccc(-n5nccn5)cc34)C2c2cnc(N3CCOCC3)nc2)n1 (centres unmarked) [Compound 482, 2-[4,6-bis(trifluoromethyl)pyrimidin-2-yl]-1-[2-(morpholin-4-yl)pyrimidin-5-yl]-6-(2H-1,2,3-triazol-2-yl)-2,3,4,9-tetrahydro-1H-pyrido[3,4-b]indole]"
8,5.8,"Cc1nc(N2CC(F)(F)C2)nc(N2CCc3c([nH]c4ccc(Cl)cc34)[C@@H]2c2cnc(N3CCOCC3)nc2)n1 [Compound 457, (1S)-6-chloro-2-[4-(3,3-difluoroazetidin-1-yl)-6-methyl-1,3,5-triazin-2-yl]-1-[2-(morpholin-4-yl)pyrimidin-5-yl]-2,3,4,9-tetrahydro-1H-pyrido[3,4-b]indole]"
9,4.6,"CN(C)c1ncc(C2c3[nH]c4cc(F)c(Cl)cc4c3CCN2c2nccc(C(F)(F)F)n2)cn1 (centres unmarked) [Compound 95, 5-{6-chloro-7-fluoro-2-[4-(trifluoromethyl)pyrimidin-2-yl]-2,3,4,9-tetrahydro-1H-pyrido[3,4-b]indol-1-yl}-N,N-dimethylpyrimidin-2-amine]"
10,420,"Cc1ccc([C@@H]2c3[nH]c4ccc(Cl)c(F)c4c3CCN2c2nc(C)c(F)c(C)n2)c(F)c1F [Compound 190, (1R)-6-chloro-1-(2,3-difluoro-4-methylphenyl)-5-fluoro-2-(5-fluoro-4,6-dimethylpyrimidin-2-yl)-2,3,4,9-tetrahydro-1H-pyrido[3,4-b]indole]"
11,2.5,"Cc1ccc([C@H]2c3[nH]c4ccc(Cl)cc4c3CCN2c2ncc(-c3ccccc3)cn2)c(F)c1F [Compound 471, (1S)-6-chloro-1-(2,3-difluoro-4-methylphenyl)-2-(5-phenylpyrimidin-2-yl)-2,3,4,9-tetrahydro-1H-pyrido[3,4-b]indole]"
12,5.2,"FC(F)(F)c1nc(N2CCOCC2)nc(N2CCc3c([nH]c4ccc(Cl)cc34)[C@@H]2c2cnc(N3CCOCC3)nc2)n1 [Compound 445, (1S)-6-chloro-1-[2-(morpholin-4-yl)pyrimidin-5-yl]-2-[4-(morpholin-4-yl)-6-(trifluoromethyl)-1,3,5-triazin-2-yl]-2,3,4,9-tetrahydro-1H-pyrido[3,4-b]indole]"
13,22.4,"N#Cc1ccnc(N2CCc3c([nH]c4cc(F)c(Cl)cc34)C2c2ccc(Cl)cc2)n1 (centres unmarked) [Compound 40, 2-[6-chloro-1-(4-chlorophenyl)-7-fluoro-1,3,4,9-tetrahydro-2H-pyrido[3,4-b]indol-2-yl]pyrimidine-4-carbonitrile]"
14,3.3,"Cc1ccc([C@H]2c3[nH]c4ccc(Cl)cc4c3CCN2c2nc(CO)nc(C(F)(F)F)n2)c(F)c1F [Compound 521, {4-[(1S)-6-chloro-1-(2,3-difluoro-4-methylphenyl)-1,3,4,9-tetrahydro-2H-pyrido[3,4-b]indol-2-yl]-6-(trifluoromethyl)-1,3,5-triazin-2-yl}methanol]"
15,17.6,"Fc1c(Cl)ccc2[nH]c3c(c12)CCN(c1ncc(Cl)cn1)C3c1ccc(Cl)cc1 (centres unmarked) [Compound 27, 6-chloro-1-(4-chlorophenyl)-2-(5-chloropyrimidin-2-yl)-5-fluoro-2,3,4,9-tetrahydro-1H-pyrido[3,4-b]indole]"
16,0.6,"FC(F)(F)c1cc(C(F)(F)F)nc(N2CCc3c([nH]c4ccc(-n5nccn5)cc34)[C@@H]2c2cnc(N3CCOCC3)nc2)n1 [Compound 514, (1S)-2-[4,6-bis(trifluoromethyl)pyrimidin-2-yl]-1-[2-(morpholin-4-yl)pyrimidin-5-yl]-6-(2H-1,2,3-triazol-2-yl)-2,3,4,9-tetrahydro-1H-pyrido[3,4-b]indole]"
17,3.4,"Cc1ccc([C@H]2c3[nH]c4ccc(Cl)cc4c3CCN2c2nc(N3CCOCC3)nc(C(F)(F)F)n2)cc1 [Compound 442, (1S)-6-chloro-1-(4-methylphenyl)-2-[4-(morpholin-4-yl)-6-(trifluoromethyl)-1,3,5-triazin-2-yl]-2,3,4,9-tetrahydro-1H-pyrido[3,4-b]indole]"
18,8.3,"Fc1c(Cl)ccc2[nH]c3c(c12)CCN(c1nccc(C(F)(F)F)n1)C3c1cnc(-n2cncn2)nc1 (centres unmarked) [Compound 230, 6-chloro-5-fluoro-1-[2-(1H-1,2,4-triazol-1-yl)pyrimidin-5-yl]-2-[4-(trifluoromethyl)pyrimidin-2-yl]-2,3,4,9-tetrahydro-1H-pyrido[3,4-b]indole]"
19,6.4,"N#Cc1ccc(C2c3[nH]c4cc(F)c(Cl)cc4c3CCN2c2nccc(C(F)(F)F)n2)cc1 (centres unmarked) [Compound 100, 4-{6-chloro-7-fluoro-2-[4-(trifluoromethyl)pyrimidin-2-yl]-2,3,4,9-tetrahydro-1H-pyrido[3,4-b]indol-1-yl}benzonitrile]"
20,2.1,"CSc1nc(N2CCc3c([nH]c4ccc(Cl)cc34)[C@@H]2c2cnc(N3CCN(C)CC3)nc2)nc(C(F)(F)F)n1 [Compound 474, (1S)-6-chloro-1-[2-(4-methylpiperazin-1-yl)pyrimidin-5-yl]-2-[4-(methylsulfanyl)-6-(trifluoromethyl)-1,3,5-triazin-2-yl]-2,3,4,9-tetrahydro-1H-pyrido[3,4-b]indole]"
21,6.7,"FC(F)(F)c1ccnc(N2CCc3c([nH]c4ccc(Cl)cc34)C2c2ccc(N3C[C@@H]4C[C@H]3CO4)nc2)n1 (stereo partly drawn) [Compound 375, 6-chloro-1-{6-[(1S,4S)-2-oxa-5-azabicyclo[2.2.1]heptan-5-yl]pyridin-3-yl}-2-[4-(trifluoromethyl)pyrimidin-2-yl]-2,3,4,9-tetrahydro-1H-pyrido[3,4-b]indole]"
22,8.2,"CN(C)c1ccc(C2c3[nH]c4cc(F)c(Cl)cc4c3CCN2c2nccc(C(F)(F)F)n2)cn1 (centres unmarked) [Compound 122, 5-{6-chloro-7-fluoro-2-[4-(trifluoromethyl)pyrimidin-2-yl]-2,3,4,9-tetrahydro-1H-pyrido[3,4-b]indol-1-yl}-N,N-dimethylpyridin-2-amine]"
23,1,"Cc1ccc(C2c3[nH]c4ccc(Cl)c(F)c4c3CCN2c2ncc(Cl)cn2)c(F)c1F (centres unmarked) [Compound 195, 6-chloro-2-(5-chloropyrimidin-2-yl)-1-(2,3-difluoro-4-methylphenyl)-5-fluoro-2,3,4,9-tetrahydro-1H-pyrido[3,4-b]indole]"
24,1.1,"Cc1nc(N2CCc3c([nH]c4ccc(Cl)c(F)c34)C2c2ccc(/C=C/CCO)cc2)nc(C)c1F (centres unmarked) [Compound 243, (3E)-4-{4-[6-chloro-5-fluoro-2-(5-fluoro-4,6-dimethylpyrimidin-2-yl)-2,3,4,9-tetrahydro-1H-pyrido[3,4-b]indol-1-yl]phenyl}but-3-en-1-ol]"
25,1.9,"Cc1ccc(C2c3[nH]c4ccc(Cl)c(F)c4c3CCN2c2nc(C#N)cc(C#N)n2)c(F)c1F (centres unmarked) [Compound 229, 2-[6-chloro-1-(2,3-difluoro-4-methylphenyl)-5-fluoro-1,3,4,9-tetrahydro-2H-pyrido[3,4-b]indol-2-yl]pyrimidine-4,6-dicarbonitrile]"
26,82.1,"FC(F)(F)c1ccnc(N2CCc3c([nH]c4ccc(Cl)cc34)C2c2ccc(Cl)nc2Cl)n1 (centres unmarked) [Compound 319, 6-chloro-1-(2,6-dichloropyridin-3-yl)-2-[4-(trifluoromethyl)pyrimidin-2-yl]-2,3,4,9-tetrahydro-1H-pyrido[3,4-b]indole]"
27,5.3,"CN1CCN(c2ncc([C@H]3c4[nH]c5ccc(Cl)cc5c4CCN3c3ncnc(C(F)(F)F)n3)cn2)CC1 [Compound 488, (1S)-6-chloro-1-[2-(4-methylpiperazin-1-yl)pyrimidin-5-yl]-2-[4-(trifluoromethyl)-1,3,5-triazin-2-yl]-2,3,4,9-tetrahydro-1H-pyrido[3,4-b]indole]"
28,5.1,"Fc1c(C2c3[nH]c4ccc(Cl)cc4c3CCN2c2nccc(C(F)(F)F)n2)ccc(N2CCOCC2)c1F (centres unmarked) [Compound 279, 6-chloro-1-[2,3-difluoro-4-(morpholin-4-yl)phenyl]-2-[4-(trifluoromethyl)pyrimidin-2-yl]-2,3,4,9-tetrahydro-1H-pyrido[3,4-b]indole]"

row,Compound,IC50 [nM]
1,"Fc1cnc(N2CCc3c([nH]c4cc(F)c(Cl)cc34)C2c2ccc(F)nc2)nc1 (centres unmarked) [Compound 47, 6-chloro-7-fluoro-1-(6-fluoropyridin-3-yl)-2-(5-fluoropyrimidin-2-yl)-2,3,4,9-tetrahydro-1H-pyrido[3,4-b]indole]",140
